Like-named read-outs stand apart in the source and are kept apart here.
Columns and labels:
[1] = target: T1, ERK1/2 kinase; test: ERK1/2 kinase (Carna) inhibitory activity, Caliper mobility shift; assay type: biochemical; details: read-out: ERK½ IC50
T1 construct: fused on or other part: Carna's ERK products carry a GST tag by vendor knowledge
Description: (1) Preparation of 1×Kinase buffer; (2) preparation of compound concentration gradient: the initial test concentration of the tested compound was 10 μM, which was 3-fold diluted to 10 concentrations, and a duplicate test was conducted, and then the tested compound was diluted in a 96 well plate to a 100-fold final concentration of 10 different concentrations of solution. […] Log (inhibitor) vs. response—Variable slope of the analysis software GraphPad Prism 5 was used to fit the dose-effect curve to obtain the IC50 value of each compound on the enzyme activity.
2. […] (A<10 nM, 10 nM≤B<200 nM, C≥200 nM)

[2] = tested on: Colo-205 cells; test: Colo-205 tumor cell proliferation, CCK-8, 72 hours; assay type: cell-based; details: for IC50: Homo sapiens, COLO 205, 72 hours, CCK-8, read-out: Colo-205 IC50
Description: 1. Test method: Colo-205 cells (ATCC) in logarithmic growth phase were inoculated into a 96-well culture plate at an appropriate density with 90 μL per well. After overnight culture, different concentrations of the compound were added and acted for 72 hours, and a solvent control group (negative control) was set. After the compound was acted on cells for 72 hours, the effect of the compound on cell proliferation was detected by the cell counting kit CCK-8 (Dojindo), and 10 μL of CCK-8 reagent was added to each well. After the plate was placed in a 37° C. incubator for 2 to 4 hours, a full-wavelength microplate reader SpectraMax 190 was adopted for obtaining the readings with a measured wavelength of 450 nm. […] The IC50 value was obtained by four-parameter regression with the software attached to the microplate reader.

| IC50 ([1]; class symbols) [nM] | IC50 ([2]; class symbols) [nM] | IC50 ([1]; numeric values) [nM] | IC50 ([2]; numeric values) [nM] | Structure (SMILES) | cell proliferation inhibitory activity (in words) ([2]; Colo-205) |
| --- | --- | --- | --- | --- | --- |
| < 10 | < 100 | – | – | Cc1cccc([C@@H](CO)NC(=O)[C@@H](C)N2Cc3ccc(-c4cc(NC5CCOCC5)ncn4)c(F)c3C2=O)c1 [Embodiment 6] | – |
| 10 to 200 | 100 to 1000 | – | – | Cc1cccc([C@@H](CO)NC(=O)[C@@H](C)N2Cc3ccc(-c4cc(NC5CCOCC5)ncn4)nc3C2=O)c1 [Embodiment 7] | – |
| < 10 | < 100 | – | – | Cc1cccc([C@@H](CO)NC(=O)[C@@H](C)N2Cc3ccc(-c4ccnc(NC5CC(F)(F)C5)c4)c(F)c3C2=O)c1 [Embodiment 8] | strong cell proliferation inhibitory activity |
| < 10 | 100 to 1000 | – | – | Cc1cccc([C@@H](CO)NC(=O)[C@@H](C)N2Cc3ccc(-c4nc(Nc5ccnn5C)ncc4Cl)nc3C2=O)c1 [Embodiment 9] | – |
| – | 100 to 1000 | 13 | – | Cc1cccc([C@@H](CO)NC(=O)[C@@H](C)N2Cc3ccc(-c4nc(NC5CC(F)(F)C5)ncc4Cl)nc3C2=O)c1 [Embodiment 10] | – |
| – | 100 to 1000 | 8.3 | – | Cc1cccc([C@@H](CO)NC(=O)[C@@H](C)N2Cc3ccc(-c4nc(N[C@H]5CCOC5)ncc4Cl)nc3C2=O)c1 [Embodiment 11] | – |
| – | 100 to 1000 | 12 | – | Cc1cccc([C@@H](CO)NC(=O)[C@@H](C)N2Cc3ccc(-c4nc(Nc5ccc(F)c(N6CCOCC6)c5)ncc4Cl)nc3C2=O)c1 [Embodiment 12] | – |
| 10 to 200 | 100 to 1000 | – | – | Cc1cccc([C@@H](CO)NC(=O)[C@@H](C)N2Cc3ccc(-c4cc(NC5CCOCC5)ncc4Cl)nc3C2=O)c1 [Embodiment 13] | – |
| 10 to 200 | 100 to 1000 | – | – | Cc1cccc([C@@H](CO)NC(=O)[C@@H](C)N2Cc3ccc(-c4cc(NC5CCOCC5)ncc4C)nc3C2=O)c1 [Embodiment 14] | – |
| 10 to 200 | 100 to 1000 | – | – | Cc1cccc([C@@H](CO)NC(=O)[C@@H](C)N2Cc3ccc(-c4cc(Nc5ccnn5C)ncc4F)nc3C2=O)c1 [Embodiment 15] | – |
| < 10 | < 100 | – | – | Cc1cccc([C@@H](CO)NC(=O)[C@@H](C)N2Cc3ccc(-c4ccnc(Nc5ccnn5C)n4)nc3C2=O)c1 [Embodiment 16] | – |
| – | 100 to 1000 | 5.2 | – | Cc1cccc([C@@H](CO)NC(=O)[C@@H](C)N2Cc3ccc(-c4nc(NC5COC5)ncc4Cl)nc3C2=O)c1 [Embodiment 17] | – |
| – | – | 4.8 | 202 | C[C@H](C(=O)N[C@H](CO)c1ccc(F)c(Cl)c1)N1Cc2ccc(-c3nc(NC4CCOCC4)ncc3Cl)nc2C1=O [Embodiment 19] | – |

Reference: patent publication US20230312564A1, “AROMATIC RING-LACTAM COMPOUND, PREPARATION METHOD THEREFOR AND USE THEREOF” (SHANGHAI RINGENE BIOPHARMA CO., LTD., priority 2020, published 2023)
